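Following 48 hours of exposure in 96-well plates, responses at five concentrations were used to interpolate endpoints linearly. The concentration for 50% growth inhibition is given as GI50.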 Active and inactive are the calls of the source. Rule as the data show it: active = GI50 up to about 1.1 µM and inactive = higher.
Key:
Assay in all cases: NCI anticancer screen, dose series, 48 h
LOX IMVI = system: LOX IMVI
HCT-116 = system: HCT-116
SF-295 = system: SF-295
RXF 393 = system: RXF 393
ACHN = system: ACHN
UACC-257 = system: UACC-257
SF-539 = system: SF-539
UACC-62 = system: UACC-62
MOLT-4 = system: MOLT-4
PC-3 = system: PC-3
NCI-H522 = system: NCI-H522
HT-29 = system: HT-29
HCT-15 = system: HCT-15
M14 = system: M14
BT-549 = system: BT-549
EKVX = system: EKVX
SK-MEL-5 = system: SK-MEL-5
U-251 = system: U-251
NCI/ADR-RES = system: NCI/ADR-RES
K562 = system: K562
OVCAR-5 = system: OVCAR-5
OVCAR-8 = system: OVCAR-8
CCRF-CEM = system: CCRF-CEM
UO-31 = system: UO-31
CAKI-1 = system: CAKI-1
SK-OV-3 = system: SK-OV-3
SK-MEL-2 = system: SK-MEL-2
SK-MEL-28 = system: SK-MEL-28
DU-145 = system: DU-145
HOP-62 = system: HOP-62
MDA-N = system: MDA-N
SNB-19 = system: SNB-19
OVCAR-3 = system: OVCAR-3
OVCAR-4 = system: OVCAR-4
SW-620 = system: SW-620
KM12 = system: KM12
NCI-H226 = system: NCI-H226
NCI-H23 = system: NCI-H23
A549 = system: A549
MDA-MB-435 = system: MDA-MB-435
MCF7 = system: MCF7
COLO 205 = system: COLO 205
T47D = system: T47D
IGROV-1 = system: IGROV-1
HCC 2998 = system: HCC 2998
TK-10 = system: TK-10
Hs-578T = system: Hs-578T
786-0 = system: 786-0
SF-268 = system: SF-268
NCI-H460 = system: NCI-H460
SNB-75 = system: SNB-75
RPMI-8226 = system: RPMI-8226
HL-60 = system: HL-60
MDA-MB-231 = system: MDA-MB-231
HOP-92 = system: HOP-92
SN12C = system: SN12C
A498 = system: A498
Malme-3M = system: Malme-3M

Structure (SMILES): COc1cc(OC)nc(Nc2c(C#N)c3nc4ccccc4n3c3ccccc23)n1
- GI50 (LOX IMVI): 21.4 µM (inactive)
- GI50 (HCT-116): 29.6 µM (inactive)
- GI50 (SF-295): 21.6 µM (inactive)
- GI50 (RXF 393): 39.8 µM (inactive)
- GI50 (ACHN): 18.7 µM (inactive)
- GI50 (UACC-257): 52.7 µM (inactive)
- GI50 (SF-539): 17.6 µM (inactive)
- GI50 (UACC-62): 37.1 µM (inactive)
- GI50 (MOLT-4): > 100 µM (inactive)
- GI50 (PC-3): 40.3 µM (inactive)
- GI50 (NCI-H522): 19.2 µM (inactive)
- GI50 (HT-29): > 100 µM (inactive)
- GI50 (HCT-15): > 100 µM
- GI50 (M14): > 100 µM (inactive)
- GI50 (BT-549): 15.8 µM (inactive)
- GI50 (EKVX): 72.3 µM (inactive)
- GI50 (SK-MEL-5): > 100 µM (inactive)
- GI50 (U-251): 31.3 µM (inactive)
- GI50 (NCI/ADR-RES): 29.8 µM (inactive)
- GI50 (K562): > 100 µM (inactive)
- GI50 (OVCAR-5): > 100 µM (inactive)
- GI50 (OVCAR-8): 34.9 µM (inactive)
- GI50 (CCRF-CEM): > 100 µM (inactive)
- GI50 (UO-31): 53.1 µM (inactive)
- GI50 (CAKI-1): 29.1 µM (inactive)
- GI50 (SK-OV-3): 51.6 µM (inactive)
- GI50 (SK-MEL-2): 25.8 µM (inactive)
- GI50 (SK-MEL-28): > 100 µM (inactive)
- GI50 (DU-145): > 100 µM (inactive)
- GI50 (HOP-62): 16.6 µM (inactive)
- GI50 (MDA-N): > 100 µM (inactive)
- GI50 (SNB-19): 25.1 µM (inactive)
- GI50 (OVCAR-3): 31.3 µM (inactive)
- GI50 (OVCAR-4): 22.3 µM (inactive)
- GI50 (SW-620): > 100 µM (inactive)
- GI50 (KM12): 45.9 µM (inactive)
- GI50 (NCI-H226): 39.4 µM (inactive)
- GI50 (NCI-H23): 32.1 µM (inactive)
- GI50 (A549): > 100 µM (inactive)
- GI50 (MDA-MB-435): > 100 µM (inactive)
- GI50 (MCF7): 22.2 µM (inactive)
- GI50 (COLO 205): > 100 µM (inactive)
- GI50 (T47D): > 100 µM (inactive)
- GI50 (IGROV-1): 21.8 µM (inactive)
- GI50 (HCC 2998): > 100 µM (inactive)
- GI50 (TK-10): 26.5 µM (inactive)
- GI50 (Hs-578T): 47.6 µM (inactive)
- GI50 (786-0): 16.5 µM (inactive)
- GI50 (SF-268): 29.9 µM (inactive)
- GI50 (NCI-H460): 43 µM (inactive)
- GI50 (SNB-75): 16.4 µM (inactive)
- GI50 (RPMI-8226): > 100 µM (inactive)
- GI50 (HL-60): > 100 µM (inactive)

Structure (SMILES): COC(=O)C(Cc1c(-c2[nH]c3ccccc3c2CC(NC(C)=O)C(=O)OC)[nH]c2ccccc12)NC(C)=O (centres undefined)
- GI50 (LOX IMVI): > 100 µM (inactive)
- GI50 (HCT-116): > 100 µM (inactive)
- GI50 (SF-295): > 100 µM (inactive)
- GI50 (MDA-MB-231): > 100 µM (inactive)
- GI50 (RXF 393): > 100 µM (inactive)
- GI50 (ACHN): > 100 µM (inactive)
- GI50 (UACC-257): > 100 µM (inactive)
- GI50 (SF-539): > 100 µM (inactive)
- GI50 (UACC-62): > 100 µM (inactive)
- GI50 (MOLT-4): > 100 µM (inactive)
- GI50 (PC-3): > 100 µM (inactive)
- GI50 (NCI-H522): 16.3 µM (inactive)
- GI50 (HT-29): > 100 µM (inactive)
- GI50 (HOP-92): > 100 µM (inactive)
- GI50 (HCT-15): > 100 µM
- GI50 (M14): > 100 µM (inactive)
- GI50 (BT-549): > 100 µM (inactive)
- GI50 (EKVX): > 100 µM (inactive)
- GI50 (SK-MEL-5): > 100 µM (inactive)
- GI50 (U-251): > 100 µM (inactive)
- GI50 (NCI/ADR-RES): > 100 µM (inactive)
- GI50 (K562): > 100 µM (inactive)
- GI50 (OVCAR-5): > 100 µM (inactive)
- GI50 (OVCAR-8): > 100 µM (inactive)
- GI50 (CCRF-CEM): > 100 µM (inactive)
- GI50 (UO-31): > 100 µM (inactive)
- GI50 (CAKI-1): > 100 µM (inactive)
- GI50 (SK-OV-3): > 100 µM (inactive)
- GI50 (SK-MEL-2): > 100 µM (inactive)
- GI50 (SK-MEL-28): > 100 µM (inactive)
- GI50 (DU-145): > 100 µM (inactive)
- GI50 (HOP-62): > 100 µM (inactive)
- GI50 (MDA-N): > 100 µM (inactive)
- GI50 (SNB-19): > 100 µM (inactive)
- GI50 (SN12C): > 100 µM (inactive)
- GI50 (OVCAR-3): > 100 µM (inactive)
- GI50 (SW-620): > 100 µM (inactive)
- GI50 (KM12): > 100 µM (inactive)
- GI50 (NCI-H226): > 100 µM (inactive)
- GI50 (A498): > 100 µM (inactive)
- GI50 (NCI-H23): > 100 µM (inactive)
- GI50 (A549): > 100 µM (inactive)
- GI50 (MDA-MB-435): > 100 µM (inactive)
- GI50 (COLO 205): > 100 µM (inactive)
- GI50 (T47D): > 100 µM (inactive)
- GI50 (IGROV-1): > 100 µM (inactive)
- GI50 (Malme-3M): > 100 µM (inactive)
- GI50 (TK-10): > 100 µM (inactive)
- GI50 (Hs-578T): > 100 µM (inactive)
- GI50 (786-0): > 100 µM (inactive)
- GI50 (SF-268): > 100 µM (inactive)
- GI50 (NCI-H460): > 100 µM (inactive)
- GI50 (SNB-75): 92 µM (inactive)
- GI50 (RPMI-8226): > 100 µM (inactive)
- GI50 (HL-60): > 100 µM (inactive)

Structure (SMILES): C[N+](C)(C)CCOP(=O)(O)OP(=O)([O-])OCC1CCC(n2ccc(N)nc2=O)O1 (centres undefined)
- GI50 (HCT-116): > 100 µM (inactive)
- GI50 (MDA-MB-231): > 100 µM (inactive)
- GI50 (RXF 393): > 100 µM (inactive)
- GI50 (MOLT-4): > 100 µM (inactive)
- GI50 (PC-3): > 100 µM (inactive)
- GI50 (BT-549): > 100 µM (inactive)
- GI50 (EKVX): > 100 µM (inactive)
- GI50 (U-251): > 100 µM (inactive)
- GI50 (NCI/ADR-RES): > 100 µM (inactive)
- GI50 (OVCAR-8): > 100 µM (inactive)
- GI50 (CCRF-CEM): > 100 µM (inactive)
- GI50 (SK-OV-3): > 100 µM (inactive)
- GI50 (SK-MEL-2): > 100 µM (inactive)
- GI50 (MDA-N): > 100 µM (inactive)
- GI50 (SNB-19): > 100 µM (inactive)
- GI50 (MCF7): > 100 µM (inactive)
- GI50 (COLO 205): > 100 µM (inactive)
- GI50 (T47D): > 100 µM (inactive)
- GI50 (IGROV-1): > 100 µM (inactive)
- GI50 (Hs-578T): > 100 µM (inactive)
- GI50 (786-0): > 100 µM (inactive)
